Laboratory results taken from PMC2923446 (Virology, 2009).
No end group written: not given here.

Legend:
HeLa or Vero cells = settings: ref Akkarawongsa et al., 2006; cited from earlier work
HeLa cells [1] = settings: concentrations as high as 100 μM; ref Akkarawongsa et al., 2006; cited from earlier work
[2] = tested on: recombinant vaccinia virus vMJ343; settings: 1 h
Vaccinia virus = settings: 1 h
Vero cells = settings: concentrations as high as 100 μM; ref Akkarawongsa et al., 2006; cited from earlier work
HeLa cells [3] = experiment: Cytotoxicity after low pH wash; assay type: cell-based; settings: PBS pH 7 or 5, 150 μM EB 1 hr 37°C, n = 6
mouse corneas = settings: applied at a concentration of 6.1 mM; ref Akkarawongsa et al., 2006; cited from earlier work
vMJ343 = settings: 1 h

Row | Sequence | CC50 (50% cytotoxic concentration) (HeLa or Vero cells) | Cytotoxicity to HeLa cells (HeLa cells [1]) | EC50 [2] | EC50 (Vaccinia virus) | Cytotoxicity to Vero cells (Vero cells) | Toxicity of low pH treatment and subsequent EB exposure (HeLa cells [3]) | Cytotoxic effects on mouse corneas (mouse corneas) | EC50 (vMJ343)
1 | RRKKAAVALLPAVLLALLAP [EB] | >100 µM | not cytotoxic | 45 µM | 15 µM | not cytotoxic | not toxic to the cells | no cytotoxic effects | ~45 µM
2 | RRKKLAALPLVLAAPLAVLA [EBX, reference compound] | >100 µM |  |  | 150 µM |  |  |  | 
